Laboratory results: paper PMC7290078, “Agonist bias and agonist‐dependent antagonism at corticotrophin releasing factor receptors” (Pharmacology Research & Perspectives, 2020)
Where two headings read alike, the source gives them in different places. No end group written: not given here.

Columns and labels:
CRF receptor type 1 = system: CRF receptor type 1; set-up: method as in PMID 17057757; settings: blockade of UCN1; cited from earlier work
CRF1 receptor (hCRF1α) [1] = target: T1, CRF1 receptor (hCRF1α) (Homo sapiens, UniProt P34998); assay: cAMP accumulation (LANCE) in Cos7 cells transfected with hCRF1α, agonist stimulation; type: cell-based; settings: cAMP, CRF1 receptor, antagonist alone, n = 3
T1 construct: host or cells: Cos7 cells, transient transfection (PEI), pcDNA3.0/3.1 vector
T1 sequence (P34998 24-415): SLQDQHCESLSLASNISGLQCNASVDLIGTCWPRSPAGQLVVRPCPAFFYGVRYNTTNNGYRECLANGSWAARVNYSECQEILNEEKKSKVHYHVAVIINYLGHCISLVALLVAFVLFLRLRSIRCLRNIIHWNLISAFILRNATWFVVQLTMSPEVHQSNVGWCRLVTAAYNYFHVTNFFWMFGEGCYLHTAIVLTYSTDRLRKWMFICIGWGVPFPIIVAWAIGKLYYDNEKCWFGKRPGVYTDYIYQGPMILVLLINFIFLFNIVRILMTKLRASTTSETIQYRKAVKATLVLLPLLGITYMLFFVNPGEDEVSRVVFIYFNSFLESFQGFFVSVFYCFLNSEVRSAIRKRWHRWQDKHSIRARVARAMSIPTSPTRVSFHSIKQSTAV
Excerpt: (§1) Plasmids containing hCRF1α and hCRF2α (GenBank accession numbers AY457172 and AY449734) were obtained from the cDNA Resource Centre (Bloomsburg University) and are referred to as CRF1 and CRF2 in this manuscript. Hemagglutinin (HA) epitope‐tagged human Calcitonin (CT) receptor (CT(a) splice variant) and myc‐tagged human RAMP1 were used as described previously. ^27 HA‐tagged human calcitonin receptor‐like receptor (CLR), N‐terminal FLAG‐tagged human RAMP3 and N‐terminal myc‐tagged human RAMP3 were a gift from Professor David Poyner (Aston University) and Professor Patrick Sexton (Monash University), respectively. N‐terminal FLAG‐tagged human RAMP2 was used as described previously. ^28 All receptors and RAMPs were cloned in pcDNA3.0 or pcDNA3.1 plasmid vectors. All plasmid inserts were sequenced at the Centre for Genomics, Proteomics and Metabolomics (University of Auckland) and the sequences were verified prior to use.
Cos7, HEK‐293S, and HEK‐293T cells were cultured as described previously. ^28 , ^29 Cos7 cells were originally supplied by the ATCC to Associate Professor Nigel Birch (University of Auckland). HEK‐293S cells were a gift from Professor David Poyner (Aston University) and HEK‐293T cells a gift from Professor John Taylor (University of Auckland). Briefly, all cell lines were cultured in Dulbecco's Modified Eagle Medium (DMEM) supplemented with 8% heat inactivated fetal bovine serum (FBS) and maintained in a humidified incubator at 37°C with 5% CO2. For transfection, cells were counted (Countess CounterTM; Life Technologies) and plated at a density of 20 000 cells per well in 96‐well plates. The cells were transiently transfected 48 hours prior to assaying using polyethylenimine (PEI), as described previously. ^28 , ^29 In all experiments a total of 0.25 μg DNA was transfected per well. In the majority of experiments 0.25 μg DNA of receptor‐containing plasmid or the pcDNA3.1 plasmid without an insert was used. For experiments involving RAMPs, 0.125 μg of receptor DNA and 0.125 μg of RAMP‐containing plasmid DNA were transfected to give a 1:1 ratio of receptor to RAMP. […]
cAMP accumulation in Cos7 cells transfected with hCRF1α or hCRF2α receptors was measured using the LANCE cAMP detection assay kit (PerkinElmer Life and Analytical Sciences) as described previously. ^30 Briefly, culture media was removed and replaced with DMEM containing 0.1% bovine albumin serum (BSA) and 1 mmol/L 3‐isobutyl‐1‐methylxanthine (IBMX) for 30 minutes at 37°C. […] Samples were shaken for 15 minutes before 5 µL cell lysate was transferred to a white 384‐well optiplate and processed for cAMP quantification as described previously. ^31 Samples were read using an Envision plate reader (PerkinElmer). cAMP concentrations were determined from a standard curve generated in duplicate. […]

CRF2 receptor (hCRF2α) [2] = target: T2, CRF2 receptor (hCRF2α) (Homo sapiens, UniProt Q13324); assay: cAMP accumulation (LANCE) in Cos7 cells transfected with hCRF2α, agonist stimulation; type: cell-based; settings: COS-7; cAMP, CRF2 receptor, antagonist alone; n = 3; read-out: E max (partial agonism of antagonist)
T2 construct: host or cells: Cos7 cells, transient transfection (PEI), pcDNA3.0/3.1 vector
T2 sequence (Q13324 1-411): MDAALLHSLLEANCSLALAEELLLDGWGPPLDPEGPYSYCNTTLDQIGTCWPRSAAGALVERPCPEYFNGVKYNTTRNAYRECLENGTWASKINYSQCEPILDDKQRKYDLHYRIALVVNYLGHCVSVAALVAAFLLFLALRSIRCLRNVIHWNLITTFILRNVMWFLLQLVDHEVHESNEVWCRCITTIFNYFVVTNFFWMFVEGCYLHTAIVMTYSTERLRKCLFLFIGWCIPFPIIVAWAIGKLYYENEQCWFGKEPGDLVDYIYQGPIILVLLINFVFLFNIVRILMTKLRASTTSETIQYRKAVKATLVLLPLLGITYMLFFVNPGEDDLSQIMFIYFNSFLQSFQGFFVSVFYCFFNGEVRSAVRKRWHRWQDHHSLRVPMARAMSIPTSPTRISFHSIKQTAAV
Excerpt: as §1
(§2) Cos7, HEK‐293S, and HEK‐293T cells were cultured as described previously. ^28 , ^29 Cos7 cells were originally supplied by the ATCC to Associate Professor Nigel Birch (University of Auckland). HEK‐293S cells were a gift from Professor David Poyner (Aston University) and HEK‐293T cells a gift from Professor John Taylor (University of Auckland). Briefly, all cell lines were cultured in Dulbecco's Modified Eagle Medium (DMEM) supplemented with 8% heat inactivated fetal bovine serum (FBS) and maintained in a humidified incubator at 37°C with 5% CO2. For transfection, cells were counted (Countess CounterTM; Life Technologies) and plated at a density of 20 000 cells per well in 96‐well plates. The cells were transiently transfected 48 hours prior to assaying using polyethylenimine (PEI), as described previously. ^28 , ^29 In all experiments a total of 0.25 μg DNA was transfected per well. In the majority of experiments 0.25 μg DNA of receptor‐containing plasmid or the pcDNA3.1 plasmid without an insert was used. For experiments involving RAMPs, 0.125 μg of receptor DNA and 0.125 μg of RAMP‐containing plasmid DNA were transfected to give a 1:1 ratio of receptor to RAMP. Where the RAMP or receptor were transfected alone, the ratio of DNA was made up with the pcDNA3.1 plasmid.
(§3) cAMP accumulation in Cos7 cells transfected with hCRF1α or hCRF2α receptors was measured using the LANCE cAMP detection assay kit (PerkinElmer Life and Analytical Sciences) as described previously. ^30 Briefly, culture media was removed and replaced with DMEM containing 0.1% bovine albumin serum (BSA) and 1 mmol/L 3‐isobutyl‐1‐methylxanthine (IBMX) for 30 minutes at 37°C. Cells were incubated for an additional 15 minutes at 37°C with media or agonist concentrations of 1 pmol/L to 1 µmol/L for agonist only assays or 10 pmol/L to 10 µmol/L concentrations for antagonist experiments. Antagonists were added simultaneously or immediately prior to the addition of agonists. To stop cell stimulation and extract cAMP, the contents of the wells were replaced with 50 µL absolute ethanol. Samples were left at −20°C for a minimum of 10 minutes. The ethanol was evaporated and replaced with 50 µL of cAMP detection buffer. Samples were shaken for 15 minutes before 5 µL cell lysate was transferred to a white 384‐well optiplate and processed for cAMP quantification as described previously. ^31 Samples were read using an Envision plate reader (PerkinElmer). cAMP concentrations were determined from a standard curve generated in duplicate.
(§4) In all experiments the position of peptides and antagonists (pharmacology) or transfected receptors (ELISAs) on assay plates was randomized during each independent experiment, which are independent biological replicates. In all cases, duplicate, triplicate, or quadruplicate technical replicates were conducted for each independent experiment.

CRF1 receptor (hCRF1α) [3] = target: T1, CRF1 receptor (hCRF1α); assay: Antagonism of agonist-mediated cAMP accumulation in Cos7 cells expressing CRF1 receptors; type: cell-based; settings: for Kb: hCRF1α, global Schild analysis, mean ± SEM, read-out: antagonist potency (pKB) (converted)
CRF2 receptor (hCRF2α) [4] = target: T2, CRF2 receptor (hCRF2α); assay: Antagonism of agonist-mediated cAMP accumulation in Cos7 cells expressing CRF2 receptors; type: cell-based; settings: for Kb: hCRF2α, global Schild analysis, mean ± SEM, n = 5, read-out: antagonist potency (pKB) (converted)
Excerpt: as §1, §2, §3, §4

CRF2 receptor = settings: cited from earlier work

CCCCN(CC)c1nc(C)nc2c1c(C)c(C)n2-c1c(C)cc(C)cc1C [antalarmin]
mode of antagonism of Gαi activity (CRF receptor type 1): non‐competitive antagonist of Gαi activity | mode of antagonism of Gαs activity (CRF receptor type 1): competitive antagonist of Gαs

CCCC[C@H](NC(=O)[C@H](CCCCN)NC(=O)[C@H](CCCNC(=N)N)NC(=O)[C@H](CC(C)C)NC(=O)[C@](C)(CC(C)C)NC(=O)[C@H](Cc1c[nH]cn1)NC(=O)[C@@H](Cc1ccccc1)NC(=O)[C@H](CO)NC(=O)[C@H](CC(C)C)NC(=O)[C@H](CC(=O)O)NC(C)=O)C(=O)N[C@H](C(=O)N[C@@H](CCC(=O)O)C(=O)N[C@H](C(=O)N[C@@H](CCC(=O)O)C(=O)N[C@@H](CCCCN)C(=O)N[C@@H](CCC(N)=O)C(=O)N[C@@H](CCC(=O)O)C(=O)N[C@@H](CCCCN)C(=O)N[C@@H](CCC(=O)O)C(=O)N[C@@H](CCCCN)C(=O)N[C@@H](CCC(N)=O)C(=O)N[C@@H](CCC(N)=O)C(=O)N[C@@H](C)C(=O)N[C@H]1CCC(=O)NCCCC[C@@H](C(=O)N[C@@H](CC(C)C)C(=O)N[C@@H](CC(C)C)C(=O)N[C@@H](CC(C)C)C(=O)N[C@@H](CC(=O)O)C(=O)N[C@@](C)(CC(C)C)C(=O)N[C@H](C(N)=O)[C@@H](C)CC)NC(=O)[C@H](CC(N)=O)NC(=O)[C@H](CC(N)=O)NC1=O)[C@@H](C)CC)[C@@H](C)CC [astressin2B]
partial agonism (CRF1 receptor (hCRF1α) [1]): this was not the case at the CRF1 receptor | Emax (CRF2 receptor (hCRF2α) [2]): 11% | Kb (CRF1 receptor (hCRF1α) [3]; agonist CRF, cAMP, n = 5): 479 nM | Kb (CRF1 receptor (hCRF1α) [3]; agonist UCN1, cAMP, n = 5 (CP‐376,395), n = 3 (astressin2B)): > 5010 nM | antagonism of UCN1‐mediated cAMP signaling (CRF1 receptor (hCRF1α) [3]; up to 5 μmol/L, CRF1 receptor): did not measurably antagonize | potency against CRF‐mediated relative to UCN1‐mediated cAMP signaling (CRF2 receptor (hCRF2α) [4]; CRF2 receptor): approximately 10 fold | Kb (CRF2 receptor (hCRF2α) [4]; agonist CRF, cAMP): 0.302 nM | Kb (CRF2 receptor (hCRF2α) [4]; agonist UCN1, cAMP): 3.63 nM | potency at CRF2 receptor compared to CRF1 receptor (CRF2 receptor (hCRF2α) [4]; antagonism of either CRF or UCN1‐induced cAMP signaling): at least 1000 fold | selectivity (CRF2 receptor): selective antagonist of the CRF2 receptor

DLTFHLLREMLEMAKAEQEAEQAALNRLLLEEA-NH2 [α‐helical CRF(9‐41)] [listing 1 of 2 here]
Emax (CRF1 receptor (hCRF1α) [1]; COS-7, read-out: E max (partial agonism of antagonist)): 14.8%

DLTFHLLREMLEMAKAEQEAEQAALNRLLLEEA-NH2 [α‐helical CRF(9‐41)] [listing 2 of 2 here]
Kb (CRF1 receptor (hCRF1α) [3]; agonist CRF, cAMP, n = 5): 170 nM | Kb (CRF2 receptor (hCRF2α) [4]; agonist CRF, cAMP): 18.6 nM
